Laboratory results reported in article PMC10401666 (RSC Advances, 2023).
Where two headings read alike, the source gives them in different places. One block for each compound: values may come before it.

What was measured:
caspase-8 = assay: Caspase-8 level in MCF-7 cells; format: cell-based, human; conditions: MCF-7, 10.17 μM
HepG2 = assay: MTT anti-proliferative assay, HepG2; format: cell-based, human; conditions: mean of three experiments
MCF-7 = assay: MTT anti-proliferative assay, MCF-7; format: cell-based; conditions: Homo sapiens, MCF7, read-out: IC50 MCF-7
caspase-9 = assay: Caspase-9 level in MCF-7 cells; format: cell-based, human; conditions: MCF-7, 10.17 μM
TNF-α = TNF-α level in MCF-7 cells; format: cell-based, human
BAX = BAX level in MCF-7 cells; format: cell-based, human; conditions: MCF-7, 10.17 μM
IL6 = IL6 level in MCF-7 cells; format: cell-based, human
Bcl-2 = Bcl-2 level in MCF-7 cells; format: cell-based, human; conditions: MCF-7, 10.17 μM
MCF-7 cells [1] = assay: Apoptosis assay, annexin V / PI flow cytometry; format: cell-based, human; conditions: MCF-7, 10.17 μM, 72 h
MCF-7 cells [2] = assay: Cell cycle analysis by flow cytometry; format: cell-based, human; conditions: MCF-7, 10.17 μM, 72 h
VEGFR-2 = VEGFR-2 (Homo sapiens, UniProt P35968); assay: biochemical
[3] = Homo sapiens, HepG2, read-out: IC50 HepG2, MTT assay

Chain of VEGFR-2 (P35968 20-1356): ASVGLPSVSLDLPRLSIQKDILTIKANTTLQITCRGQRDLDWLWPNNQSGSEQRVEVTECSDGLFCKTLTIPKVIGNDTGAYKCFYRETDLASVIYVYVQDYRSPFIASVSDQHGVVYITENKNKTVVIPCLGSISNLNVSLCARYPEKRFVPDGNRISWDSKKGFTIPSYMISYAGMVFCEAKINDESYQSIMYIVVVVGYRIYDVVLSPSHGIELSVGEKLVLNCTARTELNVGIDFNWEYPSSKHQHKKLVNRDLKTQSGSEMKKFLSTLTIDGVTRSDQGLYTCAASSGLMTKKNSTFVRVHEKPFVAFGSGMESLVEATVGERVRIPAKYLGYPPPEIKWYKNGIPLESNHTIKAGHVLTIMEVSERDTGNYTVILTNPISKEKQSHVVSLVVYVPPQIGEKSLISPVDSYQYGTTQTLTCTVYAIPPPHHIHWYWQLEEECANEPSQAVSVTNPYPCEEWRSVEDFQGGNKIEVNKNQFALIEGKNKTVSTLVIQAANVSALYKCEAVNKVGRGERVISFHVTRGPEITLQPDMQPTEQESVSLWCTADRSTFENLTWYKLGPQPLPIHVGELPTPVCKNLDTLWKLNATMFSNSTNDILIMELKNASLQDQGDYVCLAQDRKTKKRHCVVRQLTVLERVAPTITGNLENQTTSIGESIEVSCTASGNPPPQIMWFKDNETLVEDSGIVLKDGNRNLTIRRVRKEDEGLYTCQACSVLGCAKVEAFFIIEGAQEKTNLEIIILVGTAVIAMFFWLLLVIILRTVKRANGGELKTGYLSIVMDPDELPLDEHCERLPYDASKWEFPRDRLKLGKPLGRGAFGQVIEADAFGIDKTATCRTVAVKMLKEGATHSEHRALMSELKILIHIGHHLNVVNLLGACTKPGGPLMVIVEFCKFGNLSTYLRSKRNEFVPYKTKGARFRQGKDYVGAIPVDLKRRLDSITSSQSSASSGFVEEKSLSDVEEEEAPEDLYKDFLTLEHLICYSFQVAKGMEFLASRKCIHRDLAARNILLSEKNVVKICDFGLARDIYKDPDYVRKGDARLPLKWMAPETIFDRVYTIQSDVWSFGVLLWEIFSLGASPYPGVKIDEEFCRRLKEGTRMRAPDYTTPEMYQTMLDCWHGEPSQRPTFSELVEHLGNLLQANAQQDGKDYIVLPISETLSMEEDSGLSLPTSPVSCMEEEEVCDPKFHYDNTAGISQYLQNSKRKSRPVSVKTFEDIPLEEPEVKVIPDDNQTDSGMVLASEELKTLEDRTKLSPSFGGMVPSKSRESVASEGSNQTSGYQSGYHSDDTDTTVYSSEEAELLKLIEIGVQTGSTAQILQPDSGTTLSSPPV

SMILES: O=C(CSc1nnc(Cn2cnc3sc4c(c3c2=O)CCCC4)o1)N1CCCCC1 [Compound 18, 3-((5-((2-Oxo-2-(piperidin-1-yl)ethyl)thio)-1,3,4-oxadiazol-2-yl)methyl)-5,6,7,8-tetrahydrobenzo[4,5]thieno[2,3-d]pyrimidin-4(3H)-one]
Caspase-8 level increase vs control (caspase-8): 2.6 fold | Protein expression Caspase-8 (caspase-8; control = 1): 2.607 | IC50 (HepG2; [3]): 24.5 µM | IC50 (HepG2; read-out: IC50 HepG2, MTT assay): 24.3 ± 2.08 µM | IC50 (MCF-7): 10.2 ± 1.01 µM | Caspase-9 level increase vs control (caspase-9): 5.4 fold | Protein expression Caspase-9 (caspase-9; control = 1): 5.422 | TNF-α level lower than control (TNF-α): 2.9 times | TNF-α level (TNF-α; control = 1): 0.335 | BAX level increase vs control (BAX): 3.6 fold | Protein expression BAX (BAX; control = 1): 3.669 | IL6 level lower than control (IL6): 2.5 times | IL6 level (IL6; control = 1): 0.393 | Bcl-2 level decrease vs control (Bcl-2): 3.1 fold | Protein expression Bcl-2 (Bcl-2; control = 1): 0.315 | Apoptosis induced (early + late) (MCF-7 cells [1]): 23.35% | Early apoptosis (MCF-7 cells [1]): 15.96% | Late apoptosis (MCF-7 cells [1]): 7.39% | Necrosis (MCF-7 cells [1]): 2.41 | Total (cell death) (MCF-7 cells [1]): 25.76 | Cell cycle distribution (%) % G2/M (MCF-7 cells [2]): 15.4% | Cell cycle distribution (%) %G0–G1 (MCF-7 cells [2]): 56.46% | Cell cycle distribution (%) %S (MCF-7 cells [2]): 28.14%

SMILES: O=C(CSc1nnc(Cn2cnc3sc4c(c3c2=O)CCCC4)o1)Nc1c([N+](=O)[O-])cccc1[N+](=O)[O-] [Compound 19, N-(2,6-Dinitrophenyl)-2-((5-((4-oxo-5,6,7,8-tetrahydrobenzo[4,5]thieno[2,3-d]pyrimidin-3(4H)-yl)methyl)-1,3,4-oxadiazol-2-yl)thio)acetamide]
IC50 (VEGFR-2): 0.29 ± 0.007 µM | IC50 (HepG2; [3]): 31.8 ± 1.15 µM | IC50 (MCF-7): 16.5 ± 1.16 µM

SMILES: CNC(=O)c1cc(Oc2ccc(NC(=O)Nc3ccc(Cl)c(C(F)(F)F)c3)cc2)ccn1 [Sorafenib, reference compound]
IC50 (HepG2; [3]): 13.3 ± 0.3 µM | IC50 (MCF-7): 9.98 ± 0.6 µM

Now those with a lower IC50 (HepG2; [3]), led by results:

IC50 (VEGFR-2): 0.42 ± 0.008 µM | IC50 (HepG2; [3]): 11.8 ± 1.05 µM | IC50 (MCF-7): 6.31 ± 0.16 µM
SMILES: O=C(CSc1nnc(Cn2cnc3sc4c(c3c2=O)CCCC4)o1)Nc1nccs1 [Compound 21, 2-((5-((4-Oxo-5,6,7,8-tetrahydrobenzo[4,5]thieno[2,3-d]pyrimidin-3(4H)-yl)methyl)-1,3,4-oxadiazol-2-yl)thio)-N-(thiazol-2-yl)acetamide]

IC50 (HepG2; [3]): 5.51 ± 0.25 µM | IC50 (MCF-7): 5.73 ± 0.18 µM
SMILES: O=C(CSc1nnc(Cn2cnc3sc4c(c3c2=O)CCCC4)o1)Nc1nc2ccccc2s1 [Compound 22, N-(Benzo[d]thiazol-2-yl)-2-((5-((4-oxo-5,6,7,8-tetrahydrobenzo[4,5]thieno[2,3-d]pyrimidin-3(4H)-yl)methyl)-1,3,4-oxadiazol-2-yl)thio)acetamide]

IC50 (HepG2; [3]): 4.84 ± 0.38 µM | IC50 (MCF-7): 5.38 ± 0.45 µM
SMILES: O=C(CSc1nnc(Cn2cnc3sc4c(c3c2=O)CCCC4)o1)Nc1ccc(Cl)cn1 [Compound 20, N-(5-Chloropyridin-2-yl)-2-((5-((4-oxo-5,6,7,8-tetrahydrobenzo[4,5]thieno[2,3-d]pyrimidin-3(4H)-yl)methyl)-1,3,4-oxadiazol-2-yl)thio)acetamide]
